The text below walks through data of US8362249B2, “CXCR3 receptor antagonists” (Boehringer Ingelheim International GmbH, priority 2009, dated 2013).

Sequence of CXCR3 (A0A2K5UV19 entry or part of it): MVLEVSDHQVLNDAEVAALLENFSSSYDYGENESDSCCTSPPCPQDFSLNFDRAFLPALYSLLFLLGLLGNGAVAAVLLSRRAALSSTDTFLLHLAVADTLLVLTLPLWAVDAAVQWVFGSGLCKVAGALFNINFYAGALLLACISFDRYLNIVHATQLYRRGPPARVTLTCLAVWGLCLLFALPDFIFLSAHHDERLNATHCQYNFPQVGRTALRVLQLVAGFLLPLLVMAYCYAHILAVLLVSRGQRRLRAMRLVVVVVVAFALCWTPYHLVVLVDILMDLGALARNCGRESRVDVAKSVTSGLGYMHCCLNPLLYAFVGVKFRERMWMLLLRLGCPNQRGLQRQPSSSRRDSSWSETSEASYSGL

This assay addresses CXCR3 (Macaca fascicularis, UniProt A0A2K5UV19). As to the kind of experiment: functional cellular assay measuring calcium flux in CXCR3 transfected cells (block of CXCR3/IP-10 interaction). The assay is classed as cell-based. The conditions noted are these: IP-10 induced intracellular calcium flux; Cyno-CHO cells stably expressing recombinant CXCR3 and G-alpha-16. On the procedure:
Compounds are assessed for the ability to block the interaction of CXCR3 and IP-10 in a functional cellular assay measuring calcium flux in CXCR3 transfected cells.
Cyno-CHO cells, stably expressing recombinant CXCR3 and G-alpha-16 are grown in F12 medium (Mediatech #45000-360) supplemented with 10% (V/V) FBS (Mediatech #35-01500), 1% Geneticin (Invitrogen #10131-027) and 0.2% Zeocin (Invitrogen #R250-05). The cells are spun down and re-suspended in growth media to a concentration of 4.8 E5 cells/mL. 25 microL of cell suspension is added to each well of a BD-384-well TC treated plate, providing 12,000 cells/well. The plate is incubated at 37° C./5% CO2 overnight. On the day of the assay, the plates are removed, the media is flicked out and 25 microL of Ca-4 dye in assay buffer (HBSS, 10 mM HEPES ph 7.4), containing 2 mM probenacid is added to each well. The cell assay plates are then incubated at 37° C./5% CO2 for one hour.
Test compounds are dissolved in DMSO and diluted to 1.045 mM in DMSO. Just prior to assay, 2.75 microL of appropriately diluted test compound are added to each well of a 384 well plate containing 45 microL of HBSS buffer. After mixing, 5 microL of diluted compound are added to each well of the cell assay plate for a final assay concentration of 10 microM. The plate is incubated at room temperature for 15 min. 10 microL of IP-10 stock solution in HBSS (4× EC80 concentration) are added to each well of the cell assay plate except those cells reserved as blank wells containing buffer only. Intracellular calcium flux is recorded on the HAMAMTSU FDSS6000, using excitation at 480 nm and emission at 540 nm. Data are analyzed using Activity Base software.
In general, the preferred potency range (IC50) of compounds in the above assay is between 1 nM to 3 μM, and the most preferred potency range is 1 nM to 20 nM.
One may read the IC50 as the concentration that inhibits the measured activity by half. Consider `Cc1cc(C)n(CC(=O)N2CCN(c3ccccc3C(=O)Nc3nc(C(F)(F)F)cs3)CC2)n1` [2-{4-[2-(3,5-Dimethyl-pyrazol-1-yl)-acetyl]-piperazin-1-yl}-N-(4-trifluoromethyl-thiazol-2-yl)-benzamide], for which the half-maximal inhibitory concentration (IC50) came out at 18 nM. Regarding `Cc1cc(C)n(CC(=O)N2CCN(c3ccccc3C(=O)Nc3cnc(C)c(F)c3)CC2)n1` [2-{4-[2-(3,5-Dimethyl-pyrazol-1-yl)-acetyl]-piperazin-1-yl}-N-(5-fluoro-6-methyl-pyridin-3-yl)-benzamide], the IC50 is 14 nM. As for `Cc1cc(C)n(CC(=O)N2CCN(c3ccccc3C(=O)Nc3cncc(F)c3)CC2)n1` [2-{4-[2-(3,5-Dimethyl-pyrazol-1-yl)-acetyl]-piperazin-1-yl}-N-(5-fluoro-pyridin-3-yl)-benzamide], the figure is 10.8 nM.

Consider `Cc1cc(C)n(CC(=O)N2CCN(c3ccccc3C(=O)Nc3cncc(O)c3)CC2)n1` [2-{4-[2-(3,5-Dimethyl-pyrazol-1-yl)-acetyl]-piperazin-1-yl}-N-(5-hydroxy-pyridin-3-yl)-benzamide], for which the IC50 was found to be 12.5 nM.

As for `Cc1cc(C)n(CC(=O)N2CCN(c3ccccc3C(=O)Nc3nc4c(s3)CN(C)CC4)CC2)n1` [2-{4-[2-(3,5-Dimethyl-pyrazol-1-yl)-acetyl]-piperazin-1-yl}-N-(5-methyl-4,5,6,7-tetrahydro-thiazolo[5,4-c]pyridin-2-yl)-benzamide], the concentration for half-maximal inhibition (IC50) was determined as 9.7 nM. As for `Cc1cncc(NC(=O)c2ccccc2N2CCN(C(=O)Cn3nc(C)cc3C)CC2)c1` [2-{4-[2-(3,5-Dimethyl-pyrazol-1-yl)-acetyl]-piperazin-1-yl}-N-(5-methyl-pyridin-3-yl)-benzamide], the figure is 5.1 nM.

Regarding `Cc1cc(C)n(CC(=O)N2CCN(c3ccccc3C(=O)Nc3ncc(C)s3)CC2)n1` [2-{4-[2-(3,5-Dimethyl-pyrazol-1-yl)-acetyl]-piperazin-1-yl}-N-(5-methyl-thiazol-2-yl)-benzamide], the concentration for half-maximal inhibition (IC50) amounted to 7.3 nM. `Cc1cc(C)n(CC(=O)N2CCN(c3ccccc3C(=O)Nc3nc4ccc(S(C)(=O)=O)cc4s3)CC2)n1` [2-{4-[2-(3,5-Dimethyl-pyrazol-1-yl)-acetyl]-piperazin-1-yl}-N-(6-methanesulfonyl-benzothiazol-2-yl)-benzamide]: the half-maximal inhibitory concentration (IC50) came to 6.6 nM.

Take `COc1ccc2nc(NC(=O)c3ccccc3N3CCN(C(=O)Cn4nc(C)cc4C)CC3)sc2c1` [2-{4-[2-(3,5-Dimethyl-pyrazol-1-yl)-acetyl]-piperazin-1-yl}-N-(6-methoxy-benzothiazol-2-yl)-benzamide]: the half-maximal inhibitory concentration (IC50) came to 9.8 nM. Take `COc1ccc(NC(=O)c2ccccc2N2CCN(C(=O)Cn3nc(C)cc3C)CC2)cn1` [2-{4-[2-(3,5-Dimethyl-pyrazol-1-yl)-acetyl]-piperazin-1-yl}-N-(6-methoxy-pyridin-3-yl)-benzamide]: the IC50 worked out at 5.9 nM. Under `Cc1ccc(NC(=O)c2ccccc2N2CCN(C(=O)Cn3nc(C)cc3C)CC2)cn1` [2-{4-[2-(3,5-Dimethyl-pyrazol-1-yl)-acetyl]-piperazin-1-yl}-N-(6-methyl-pyridin-3-yl)-benzamide] stands 5.3 nM. As for `Cc1cc(C)n(CC(=O)N2CCN(c3ccccc3C(=O)Nc3ccc(N4CCOCC4)nc3)CC2)n1` [2-{4-[2-(3,5-Dimethyl-pyrazol-1-yl)-acetyl]-piperazin-1-yl}-N-(6-morpholin-4-yl-pyridin-3-yl)-benzamide], the figure is 12.5 nM; as for `Cc1cc(C)n(CC(=O)N2CCN(c3ccccc3C(=O)Nc3ccc(Oc4ccccc4)nc3)CC2)n1` [2-{4-[2-(3,5-Dimethyl-pyrazol-1-yl)-acetyl]-piperazin-1-yl}-N-(6-phenoxy-pyridin-3-yl)-benzamide], 10 nM; as for `Cc1cc(C)n(CC(=O)N2CCN(c3ccccc3C(=O)Nc3ccc(-c4ccccc4)nc3)CC2)n1` [2-{4-[2-(3,5-Dimethyl-pyrazol-1-yl)-acetyl]-piperazin-1-yl}-N-(6-phenyl-pyridin-3-yl)-benzamide], 11.5 nM. Take `Cc1cc(C)n(CC(=O)N2CCN(c3ccccc3C(=O)Nc3ccc(C(F)(F)F)nc3)CC2)n1` [2-{4-[2-(3,5-Dimethyl-pyrazol-1-yl)-acetyl]-piperazin-1-yl}-N-(6-trifluoromethyl-pyridin-3-yl)-benzamide]: the IC50 came out at 11 nM.

With `Cc1cc(C)n(CC(=O)N2CCN(c3ccccc3C(=O)Nc3ccnc(OCC(F)(F)F)c3)CC2)n1` [2-{4-[2-(3,5-Dimethyl-pyrazol-1-yl)-acetyl]-piperazin-1-yl}-N-[2-(2,2,2-trifluoro-ethoxy)-pyridin-4-yl]-benzamide], the half-maximal inhibitory concentration (IC50) came to 8.8 nM. As for `Cc1cc(C)n(CC(=O)N2CCN(c3ccccc3C(=O)Nc3ccnc(N4CCN(C)CC4)c3)CC2)n1` [2-{4-[2-(3,5-Dimethyl-pyrazol-1-yl)-acetyl]-piperazin-1-yl}-N-[2-(4-methyl-piperazin-1-yl)-pyridin-4-yl]-benzamide], the figure is 14 nM; as for `Cc1cc(C)n(CC(=O)N2CCN(c3ccccc3C(=O)Nc3ccc4cnccc4c3)CC2)n1` [2-{4-[2-(3,5-Dimethyl-pyrazol-1-yl)-acetyl]-piperazin-1-yl}-N-isoquinolin-6-yl-benzamide], 13 nM; as for `Cc1cc(C)n(CC(=O)N2CCN(c3ccccc3C(=O)Nc3ccccc3)CC2)n1` [2-{4-[2-(3,5-Dimethyl-pyrazol-1-yl)-acetyl]-piperazin-1-yl}-N-phenyl-benzamide], 13 nM. As for `Cc1cc(C)n(CC(=O)N2CCN(c3ccccc3C(=O)Nc3ccnnc3)CC2)n1` [2-{4-[2-(3,5-Dimethyl-pyrazol-1-yl)-acetyl]-piperazin-1-yl}-N-pyridazin-4-yl-benzamide], the IC50 was 17 nM.

On to `Cc1cc(C)n(CC(=O)N2CCN(c3ccccc3C(=O)Nc3cccnc3)CC2)n1` [2-{4-[2-(3,5-Dimethyl-pyrazol-1-yl)-acetyl]-piperazin-1-yl}-N-pyridin-3-yl-benzamide], for which the IC50 came to 6.6 nM. As for `Cc1cc(C)n(CC(=O)N2CCN(c3ccccc3C(=O)Nc3ccncc3)CC2)n1` [2-{4-[2-(3,5-Dimethyl-pyrazol-1-yl)-acetyl]-piperazin-1-yl}-N-pyridin-4-yl-benzamide], the figure is 4.7 nM.

`Cc1cc(C)n(CC(=O)N2CCN(c3ccccc3C(=O)Nc3cnc4ccccc4c3)CC2)n1` [2-{4-[2-(3,5-Dimethyl-pyrazol-1-yl)-acetyl]-piperazin-1-yl}-N-quinolin-3-yl-benzamide]: the 50% inhibitory concentration (IC50) was determined as 4.8 nM. In the case of `Cc1cc(C)n(CC(=O)N2CCN(c3ccccc3C(=O)Nc3ccc4ncccc4c3)CC2)n1` [2-{4-[2-(3,5-Dimethyl-pyrazol-1-yl)-acetyl]-piperazin-1-yl}-N-quinolin-6-yl-benzamide], the IC50 stood at 11.5 nM. As for `Cc1cc(C)n(CC(=O)N2CCN(c3ccccc3C(=O)Nc3nccs3)CC2)n1` [2-{4-[2-(3,5-Dimethyl-pyrazol-1-yl)-acetyl]-piperazin-1-yl}-N-thiazol-2-yl-benzamide], the figure is 13 nM; as for `Cn1c(=O)n(CC(=O)N2CCN(c3ccccc3C(=O)Nc3ccncc3)CC2)c2ccccc21` [2-{4-[2-(3-Methyl-2-oxo-2,3-dihydro-benzoimidazol-1-yl)-acetyl]-piperazin-1-yl}-N-pyridin-4-yl-benzamide], 4 nM; as for `Cc1nn(CC(=O)N2CCN(c3ccccc3C(=O)Nc3ccncc3)CC2)c(=O)c2ccccc12` [2-{4-[2-(4-Methyl-1-oxo-1H-phthalazin-2-yl)-acetyl]-piperazin-1-yl}-N-pyridin-4-yl-benzamide], 5.4 nM.
